In patent US20130029928A1 (priority 2010, published 2013):
Where two headings read alike, the source gives them in different places.

Assay: Phase I study CXR1002-001: plasma pharmacokinetics (LC-MS/MS)
Format: in vivo, human
Details: for concentration at 864 h: Time 864 hr (Day 37); for concentration at 24 h: Time 24 hr (Day 2); for concentration at 168 h: Time 168 hr (Day 8); for concentration at 192 h: Time 192 hr (Day 9); for concentration at 336 h: Time 336 hr (Day 15); for concentration at 360 h: Time 360 hr (Day 16); for concentration at 504 h: Time 504 hr (Day 22); for concentration at 528 h: Time 528 hr (Day 23); for concentration at 672 h: Time 672 hr (Day 29); for concentration at 696 h: Time 696 hr (Day 30)
Excerpt: PK samples, PD (fasting) samples, blood glucose, and blood triglyceride samples, were taken over a 6-week period.
Dose limiting toxicity (DLT) will be based on the toxicity assessments over the first 3-week period of the repeat dosing schedule. PK samples (single blood sample) were taken on the following basis: • Every 6 weeks during the repeat dosing phase • If dosing is interrupted or stopped, samples will be taken at intervals according to patient convenience • PK sampling for safety evaluation may take place at any time, as clinically indicated
Plasma samples were collected after the single 50 mg dose at the following timepoints: Pre-dose, and then 0.25, 0.5, 0.75, 1, 1.5, 2, 3, 4, 6, 24, 48, and 72 hours after administration and then once weekly at weeks 2, 3, 4, 5, and 6 (days 8, 15, 22, 29, and 36). For patients treated with the weekly repeat dose, plasma samples were collected at the following timepoints: Pre-dose and then 2, 3, 4 and 24 hours after administration for a total of 6 weeks. Thereafter a single sample was collected every 6 weeks for monitoring of exposure during long term treatment. Plasma samples were processed at site and stored at −80° C. prior to batch shipment to the analytical laboratory.

[1] = human, plasma, po, 1200 mg, Patient 036, 1200 mg weekly oral dose, read-out: Concentration (plasma level)
[2] = human, plasma, po, 1200 mg, Patient 037, 1200 mg weekly oral dose, read-out: Concentration (plasma level)
[3] = human, plasma, po, 1200 mg, Patient 038, 1200 mg weekly oral dose, read-out: Concentration (plasma level)

`O=C(O)C(F)(F)C(F)(F)C(F)(F)C(F)(F)C(F)(F)C(F)(F)C(F)(F)F` [CXR1002] showed a concentration at 844 h [1] of 1230 µM, a concentration at 864 h [1] of 1060 µM and a concentration at 2 h [2] of 256 µM. For the same compound, the concentration at 3 h [2] was 302 µM, the concentration at 4 h [2] was 278 µM and the concentration at 24 h [2] was 418 µM. The concentration at 168 h [2] was 422 µM, the concentration at 170 h [2] was 634 µM and the concentration at 171 h [2] was 660 µM. It also gave a concentration at 172 h [2] of 712 µM, a concentration at 192 h [2] of 841 µM and a concentration at 336 h [2] of 780 µM. The concentration at 338 h [2] was 1050 µM, the concentration at 339 h [2] was 1040 µM and the concentration at 340 h [2] was 1030 µM. For the same compound, the concentration at 360 h [2] was 1140 µM, the concentration at 504 h [2] was 1100 µM and the concentration at 506 h [2] was 1200 µM. It also gave a concentration at 507 h [2] of 1220 µM, a concentration at 508 h [2] of 1390 µM and a concentration at 528 h [2] of 1390 µM. It also gave a concentration at 672 h [2] of 1320 µM, a concentration at 674 h [2] of 1460 µM and a concentration at 675 h [2] of 1460 µM. For the same compound, the concentration at 676 h [2] was 1450 µM, the concentration at 696 h [2] was 1530 µM and the concentration at 2 h [3] was 313 µM. For the same compound, the concentration at 3 h [3] was 314 µM, the concentration at 4 h [3] was 298 µM and the concentration at 24 h [3] was 242 µM. For the same compound, the concentration at 168 h [3] was 268 µM, the concentration at 170 h [3] was 502 µM and the concentration at 171 h [3] was 481 µM. For the same compound, the concentration at 172 h [3] was 538 µM, the concentration at 192 h [3] was 493 µM and the concentration at 336 h [3] was 462 µM. It also gave a concentration at 338 h [3] of 808 µM, a concentration at 339 h [3] of 682 µM and a concentration at 340 h [3] of 672 µM. It also gave a concentration at 360 h [3] of 749 µM, a concentration at 504 h [3] of 566 µM and a concentration at 506 h [3] of 658 µM. For the same compound, the concentration at 507 h [3] was 788 µM, the concentration at 508 h [3] was 699 µM and the concentration at 528 h [3] was 746 µM. For the same compound, the concentration at 672 h [3] was 682 µM, the concentration at 674 h [3] was 932 µM and the concentration at 675 h [3] was 885 µM. For the same compound, the concentration at 676 h [3] was 708 µM, the concentration at 696 h [3] was 802 µM and the concentration at 840 h (human, plasma, po, 1200 mg, Patient 038, 1200 mg weekly oral dose, Time 840 hr (Day 36), read-out: Concentration (plasma level)) was 687 µM. For the same compound, the concentration at 842 h (human, plasma, po, 1200 mg, Patient 038, 1200 mg weekly oral dose, Time 842 hr, read-out: Concentration (plasma level)) was 895 µM, the concentration at 843 h (human, plasma, po, 1200 mg, Patient 038, 1200 mg weekly oral dose, Time 843 hr, read-out: Concentration (plasma level)) was 955 µM and the concentration at 844 h [3] was 914 µM. The concentration at 864 h [3] was 958 µM, the “gender difference in exposure” value (in vivo) was “no gender difference” and the accumulation (weekly dose) was “accumulates”. For the same compound, the “maximal blood level reached” value (weekly repeat dose (Pharmacokinetic Summary)) was 617 µM.
